In US20170058314A1, “NOVEL METHODOLOGY FOR IDENTIFYING ANTI-PERSISTER ACTIVITY AND ANTIMICROBIAL SUSCEPTIBILITY FOR BORRELIA BURGDORFERI AND OTHER BACTERIA” (priority 2014, published 2017):

Test system: M. tuberculosis H37Ra WT
Format: cell-based, Mycobacterium tuberculosis

NC(=O)c1cnccn1 [PZA, pyrazinamide]
residual viability of H37Ra WT compared with PZA resistant mutants: obviously decreased
